Source: patent EP0460016B1, “METASTASIS-ASSOCIATED COLLAGENOLYTIC METALLOPROTEINASES” (priority 1989, dated 1990)
Like-named read-outs stand apart in the source and are kept apart here.

What was measured:
[1] = biological target: T1, Mr 88,000 proteinase (88/92 kd type IV collagenolytic metalloproteinase) (Rattus norvegicus, UniProt P50282); type: biochemical
T1 construct: type IV collagenolytic enzymes secreted by mammary adenocarcinoma cells; endogenous in cells; host or cells: rat 13762NF mammary adenocarcinoma cell clones (MTF7-T35.3, MTC, MTLn3-T44.5), serum-free conditioned medium
Description: (§1) Identification of type IV collagenolytic enzymes secreted by mammary adenocarcinoma cells was performed by electrophoresis of serum-free conditioned media in a type IV collagen-embedded polyacrylamide gel followed by incubation and Coomassie blue staining, based on the methods described by Heussen and Dowdle (24). Type IV procollagen was purified from Engelbreth-Holm-Sworn tumors, dissolved in 0.5 M acetic acid or bovine lens capsule type IV collagen pepsin fragments (Seikagaku America, St. Petersburg, FL) in HCl at pH 3.0, neutralized with Tris and immediately dissolved in 2% SDS. After removing undissolved materials by a brief centrifugation at 18,000 x g, SDS-solubilized type IV collagen was copolymerized with 7.5% acrylamide. In some experiments, each of the following proteins was also embedded in SDS-polyacrylamide gels: rat hemoglobin; rat immunoglobulin G; bovine serum ablumin; bovine plasma fibronectin; bovine alpha-casein; and gelatin from swine skin (Sigma Chemical, St. Louis, MO). Electrophoresis of serum, or other samples such as one obtained from conditioned media, was carried out by the method of Laemmli (25) in polyacrylamide gels containing 0.5 to 1.0 mg/ml of type IV collagen.
(§2) In the case of serum samples, serum (2.5 ul) was mixed with the same volume of sodium dodecyl sulfate sample buffer without reducing agents, and immediately subjected to electrophoresis in a 7.5% polyacrylamide gel containing the protein substrates. After electrophoresis, gels were rinsed twice with 2.5% Triton X-100 in 50 mM Tris-HCl buffer, pH 7.5, and incubated at 37`C for 16 h in 0.15 M NaCl, 10 mM CaCl₂ and 50 mM Tris-HCl buffer, pH 7.5, containing 0.05% NaN₃. Gels were stained with 0.05% Coomassie blue, 10% isopropanol, and 10% acetic acid in H₂0 and these destained with 10% isopropanol and 10% acetic acid in H₂0. Type IV collagenolytic enzymes were detected as transparent bands on the blue background of Coomassie blue-stained slab gels.
(§3) In order to conduct zymography using samples obtained by the preparation of conditioned media, the following steps were performed. Mammary adenocarcinoma cells (1 x 10⁶ cells) were seeded in a 10-cm tissue culture plate and cultured for 24 h in […] complete medium containing 10% heat-inactivated FBS. The cells were extensively washed with DPBS and then further cultured in 10 ml of serum-free complete medium. The serum-free culture supernatants were withdrawn and sequentially centrifuged at 800 x g and 18,000 x g, and then aliquots of the supernatants were concentrated with Centricon 30 concentrators (Amicon, Danvers, MA) and mixed with SDS sample buffer.

Mr 64,000 proteinase = type: biochemical, rat
Description: as §1, §2, §3

[2] = 2 mM in incubation buffer, conditioned media from 48 h cultures
[3] = 10 mM in incubation buffer, conditioned media from 48 h cultures
[4] = 5 mM in incubation buffer, conditioned media from 48 h cultures

T1 sequence (P50282 108-708): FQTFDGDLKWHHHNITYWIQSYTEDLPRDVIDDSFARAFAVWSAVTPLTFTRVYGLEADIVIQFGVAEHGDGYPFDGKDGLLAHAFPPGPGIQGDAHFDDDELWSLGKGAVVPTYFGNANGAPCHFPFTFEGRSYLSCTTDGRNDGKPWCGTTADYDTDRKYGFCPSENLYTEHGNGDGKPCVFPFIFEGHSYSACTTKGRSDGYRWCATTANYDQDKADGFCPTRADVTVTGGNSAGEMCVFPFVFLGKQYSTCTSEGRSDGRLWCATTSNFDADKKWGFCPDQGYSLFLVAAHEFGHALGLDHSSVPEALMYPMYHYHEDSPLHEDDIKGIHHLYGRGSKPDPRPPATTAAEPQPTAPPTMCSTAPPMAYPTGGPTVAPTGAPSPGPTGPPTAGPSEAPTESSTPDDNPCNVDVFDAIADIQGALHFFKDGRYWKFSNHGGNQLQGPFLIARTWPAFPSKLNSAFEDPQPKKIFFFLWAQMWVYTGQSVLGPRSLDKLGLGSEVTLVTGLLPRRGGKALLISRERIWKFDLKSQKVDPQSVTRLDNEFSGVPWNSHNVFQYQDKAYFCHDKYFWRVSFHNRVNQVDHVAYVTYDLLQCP

With O=S(=O)(F)Cc1ccccc1 [phenylmethylsulfonyl fluoride] the enzyme activity [1, 2] was “did not inhibit”, the enzyme activity ([1]; 2 mM in incubation buffer, conditioned media from 48 h cultures, listed as PMSF) was “not inhibited” and the enzyme activity (Mr 64,000 proteinase; [2]) was “did not inhibit”.

c1cnc2c(c1)ccc1cccnc12 [1,10-phenanthroline] was tested, and the “active enzyme bands / enzyme activity” value [1, 3] was “did not appear”, the “active enzyme bands / enzyme activity” value ([1]; 10 mM in incubation buffer, conditioned media from 48 h cultures, listed as 1, 10-phenanthroline, 10000 µM) was “inactive” and the active enzyme bands (Mr 64,000 proteinase; [3]) was “did not appear”.

In the case of O=C(O)CN(CCN(CC(=O)O)CC(=O)O)CC(=O)O [EDTA, ethylenediaminetetraacetic acid], the “active enzyme bands / enzyme activity” value [1] is reported as “did not appear”, the “active enzyme bands / enzyme activity” value ([1]; 10000 µM) is reported as “inactive” and the active enzyme bands (Mr 64,000 proteinase) is reported as “did not appear”.

For CCN1C(=O)C=CC1=O [N-ethylmaleimide], the enzyme activity [1, 4] was “did not inhibit”, the enzyme activity ([1]; 5 mM in incubation buffer, conditioned media from 48 h cultures, listed as NEM) was “not inhibited” and the enzyme activity (Mr 64,000 proteinase; [4]) was “did not inhibit”.
